The source of these data is patent US20250073249A1, “STEROID COMPOUND, AND PREPARATION METHOD THEREFOR AND USE THEREOF” (SHANGHAI INSTITUTE OF MATERIA MEDICA, CHINESE ACADEMY OF …, priority 2022, published 2025).

One data set relates to LNCaP cells. As to the kind of experiment: In vitro LNCaP cell proliferation inhibition test (CellTiter-Glo). Conditions: for Maximum Inhibition (%) / IC50: 6 days; for IC50: Homo sapiens, read-out: Anti-proliferative activity IC50. It is filed as cell-based. As to the method: The cells were then digested with trypsin and counted using an automated cell counter to determine cell density. The cell suspension was diluted to the desired density in growth medium. Subsequently, 100 μL of the cell suspension was seeded into 96-well plates and incubated at 37° C. with 5% CO2 for 24 hours. 10 μL of drug solution (including 3-fold serial dilutions of compounds or DMSO) was added to each well, and the plates were incubated at 37° C. with 5% CO2 for 6 days. Prior to measurement, the assay plates were equilibrated to room temperature. 40 μL of CellTiter-Glo® reagent was added to each well. The plates were mixed on an orbital shaker for 2 minutes to induce cell lysis. After incubation at room temperature for 60 minutes to stabilize the luminescence signal, the plates were read on an Envision plate reader.

Another data set concerns the target T1, AR (Homo sapiens, UniProt P10275, T878A).
T1 construct: endogenous in cells; host or cells: LNCaP
T1 sequence (P10275 1-920 T878A): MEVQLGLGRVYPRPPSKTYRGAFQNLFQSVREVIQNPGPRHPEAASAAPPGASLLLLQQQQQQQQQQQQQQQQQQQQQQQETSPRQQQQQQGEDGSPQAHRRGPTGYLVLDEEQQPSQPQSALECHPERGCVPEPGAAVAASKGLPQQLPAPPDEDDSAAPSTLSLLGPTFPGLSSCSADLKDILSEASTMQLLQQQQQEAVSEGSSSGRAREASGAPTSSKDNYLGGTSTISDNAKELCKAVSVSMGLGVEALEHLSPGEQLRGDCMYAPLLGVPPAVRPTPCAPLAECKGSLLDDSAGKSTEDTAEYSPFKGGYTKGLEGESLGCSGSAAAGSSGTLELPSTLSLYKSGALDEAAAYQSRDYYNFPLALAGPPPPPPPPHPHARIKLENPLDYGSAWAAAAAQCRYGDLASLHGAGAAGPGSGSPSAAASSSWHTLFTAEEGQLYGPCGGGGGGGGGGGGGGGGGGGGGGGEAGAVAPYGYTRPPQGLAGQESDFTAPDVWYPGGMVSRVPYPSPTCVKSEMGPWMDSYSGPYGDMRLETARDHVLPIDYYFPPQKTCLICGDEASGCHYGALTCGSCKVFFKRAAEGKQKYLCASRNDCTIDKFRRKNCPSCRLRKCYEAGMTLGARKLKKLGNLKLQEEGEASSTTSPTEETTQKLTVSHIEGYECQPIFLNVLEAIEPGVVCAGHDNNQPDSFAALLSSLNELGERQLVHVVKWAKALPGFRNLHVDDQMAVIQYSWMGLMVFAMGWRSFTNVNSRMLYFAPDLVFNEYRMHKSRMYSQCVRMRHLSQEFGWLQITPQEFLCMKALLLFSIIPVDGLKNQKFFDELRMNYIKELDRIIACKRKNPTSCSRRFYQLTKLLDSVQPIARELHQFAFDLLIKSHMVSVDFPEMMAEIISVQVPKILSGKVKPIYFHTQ
Briefly: In vitro AR degradation activity test in LNCaP cells (ELISA, OD450). In kind it is cell-based. Conditions: for DC50: LNCaP cells, 24 hours. As for the experimental part: The cells were then digested with trypsin and counted using an automated cell counter. The cell suspension was diluted to the desired density in growth medium. The cell suspension was then seeded into 96-well plates at 100 μL per well, and the plates were incubated at 37° C. with 5% CO2 for 24 hours. The compounds were then diluted 200-fold to the final concentration with DMSO or 3-fold to the final concentration with culture medium. 50 μL of compound solution was transferred to the 96-well plate and incubated at 37° C. for 24 hours. After 24 hours of incubation, the cell plate was washed 3 times with DPBS, 100 μL of 1× lysis buffer was added to each well, and placed on ice for 30 minutes. The supernatant was collected. The protein in the cell lysate samples was quantified and then diluted to the required concentration. 100 μL of cell lysate sample was added to the appropriate wells, sealed with tape and pressed firmly on top of the wells, and the plate was incubated at 37° C. for 2 hours. The plate contents were then discarded, and washed 4 times with 1× wash buffer, 200 μL per well each time. 100 μL of reconstituted detection antibody was then added, the plate was sealed with tape and incubated at 37° C. for 1 hour. The aspiration/wash step was then repeated, 100 μL of reconstituted HRP-Linked secondary antibody was added to each well, the plate was sealed with tape and incubated at 37° C. for 30 minutes. The aspiration/wash step was then repeated, 100 μL of substrate solution was added to each well and incubated at 37° C. for 10 minutes, and finally 100 μL of stop solution was added to each well. The plate was gently tapped to ensure thorough mixing, and the OD450 nm was recorded.
Degradation rate (%)=(OD450_max−OD450_sample)/(OD450_max−OD450_min)×100,plotted using GraphPad Prism 5 software, and IC50 is calculated using SPSS software.

Data set [1] in a line: In vivo pharmacokinetics in rats after oral gavage. Conditions: male SD rats, PO 10 mg/kg. As for the experimental part:
Male SD rats were randomly divided into 6 groups, 3 rats per group. The rats were fasted but not water-deprived for 12-14 h one day before dosing. The test samples were then dissolved in a solvent of 5% DMSO+30% PEG400+65% (0.5% MC) and administered by gavage at 10 mg/kg. Food was provided 4 h after dosing. Blood samples (0.10 mL) were collected via the orbital sinus at 0, 15, 30 min, 1, 2, 4, 6, 8, and 24 h, with EDTA-K2 as anticoagulant. Blood samples were placed on ice after collection and centrifuged to separate plasma within 30 minutes (centrifugation conditions: 5000 rpm, 10 minutes, 4° C.). 50.0 μL of plasma sample (taken from −80° C. freezer, thawed naturally at room temperature and vortexed for 30 seconds) was added to a 1.5 mL centrifuge tube, followed by addition of 500 μL internal standard solution (methanol (TEDIA, HPLC grade), acetonitrile (TEDIA, HPLC grade), formic acid (FA, ACROS ORGANICS, HPLC grade), water was laboratory-made ultrapure water (100.0 ng·mL−1)). The mixture was vortexed for 60 seconds and centrifuged for 3 minutes (centrifugal force 12000 rpm). 100 μL of the supernatant was transferred to a 96-well injection plate containing an equal volume of water, mixed by shaking, and analyzed by LC-MS/MS with an injection volume of 10 μL. The data acquisition and control system software was Analyst 1.5.1 software (Applied Biosystem). The chromatographic sample peaks were integrated automatically. The ratio of sample peak area to internal standard peak area was used as an indicator for regression with sample concentration.
The pharmacokinetic parameters of representative compounds of the present invention were tested in male SD rats after oral gavage administration at 10 mg/kg according to the above conventional method to examine the pharmacokinetic characteristics of the compounds of the present invention in rats.

As for `Cc1cn(C2=CCC3C4CC=C5C[C@@H](NC(=O)c6ccncc6F)CC[C@]5(C)C4CC[C@]23C)cn1` (stereo partly drawn) [Compound 15, N-((3S,10R,13S)-10,13-dimethyl-17-(4-methyl-1H-imidazol-1-yl)-2,3,4,7,8,9,10,11,12,13,14,15-dodecahydro-1H-cyclopenta[a]phenanthren-3-yl)-3-fluoroisonicotinamide], in the data set on LNCaP cells, the “Maximum Inhibition (%)” value was 102.6% and the IC50 turned out to be 0.753 µM.
For `CCc1cn(C2=CCC3C4CC=C5C[C@@H](NC(=O)c6ccnnc6)CC[C@]5(C)C4CC[C@]23C)cn1` (stereo partly drawn) [Compound 19], in the data set on LNCaP cells, the “Maximum Inhibition (%)” value came out at 97.68% and the IC50 came to 0.427 µM.
The molecule `CCc1cn(C2=CCC3C4CC=C5C[C@@H](NC(=O)c6ccncc6)CC[C@]5(C)C4CC[C@]23C)cn1` (stereo partly drawn) [Compound 18, N-((3S,10R,13S)-17-(4-ethyl-1H-imidazol-1-yl)-10,13-dimethyl-2,3,4,7,8,9,10,11,12,13,14,15-dodecahydro-1H-cyclopenta[a]phenanthren-3-yl)isonicotinamide] had a DC50 at AR of 3.21 µM. Also, in the data set on LNCaP cells, the “Maximum Inhibition (%)” value is listed as 98.53% and the IC50 was found to be 0.356 µM. Also, the “Anti-proliferative activity, fold improvement compared to abiraterone” value in the data set with LNCaP cells (ratio to abiraterone IC50) came to 7.9 fold.
For `C[C@]12CC[C@H](NC(=O)c3ccnnc3)CC1=CCC1C2CC[C@]2(C)C(n3cnc(C#N)c3)=CCC12` (stereo partly drawn) [Compound 25], in the data set with LNCaP cells, the “Maximum Inhibition (%)” value was 89.52% and the IC50 amounted to 0.471 µM.
Molecule `C[C@]12CC[C@H](NC(=O)c3cccnc3)CC1=CCC1C2CC[C@]2(C)C(c3cccnc3)=CCC12` (stereo partly drawn) [Compound 3, N-((3S,10R,13S)-10,13-dimethyl-17-(pyridin-3-yl)-2,3,4,7,8,9,10,11,12,13,14,15-dodecahydro-1H-cyclopenta[a]phenanthren-3-yl)nicotinamide] showed a DC50 at AR of 2.87 µM.
On to `C[C@]12CC[C@H](NC(=O)c3ccncc3)CC1=CCC1C2CC[C@]2(C)C(c3cccnc3)=CCC12` (stereo partly drawn) [Compound 2, N-((3S,10R,13S)-10,13-dimethyl-17-(pyridin-3-yl)-2,3,4,7,8,9,10,11,12,13,14,15-dodecahydro-1H-cyclopenta[a]phenanthren-3-yl)isonicotinamide], for which, in the data set on LNCaP cells, the “Maximum Inhibition (%)” value was found to be 93.50% and the IC50 stood at 0.851 µM.
In the same order, the values of `CC(C)c1cn(C2=CCC3C4CC=C5C[C@@H](NC(=O)c6ccncc6)CC[C@]5(C)C4CC[C@]23C)cn1` (stereo partly drawn) [Compound 20, N-((3S,10R,13S)-17-(4-isopropyl-1H-imidazol-1-yl)-10,13-dimethyl-2,3,4,7,8,9,10,11,12,13,14,15-dodecahydro-1H-cyclopenta[a]phenanthren-3-yl)isonicotinamide] are 94.04% and 0.735 µM.
At AR, `Cc1cn(C2=CCC3C4CC=C5C[C@@H](NC(=O)c6ccc(C#N)cc6)CC[C@]5(C)C4CC[C@]23C)cn1` (stereo partly drawn) [Compound 36, N-((3S,10R,13S)-17-(4-methyl-1H-imidazol-1-yl)-10,13-dimethyl-2,3,4,7,8,9,10,11,12,13,14,15-dodecahydro-1H-cyclopenta[a]phenanthren-3-yl)-4-cyanobenzamide] gave a DC50 of 1.37 µM. In addition, the “AR degradation activity, improvement compared to Galeterone” value at AR (ratio to Galeterone DC50) was 7.6 times. Also, in the data set on LNCaP cells, the “Maximum Inhibition (%)” value was 99.38% and the IC50 stood at 0.643 µM.
Regarding `C[C@]12CC[C@H](NC(=O)c3ccnnc3)CC1=CCC1C2CC[C@]2(C)C(n3cnc(C(F)(F)F)c3)=CCC12` (stereo partly drawn) [Compound 22], in the data set with LNCaP cells, the “Maximum Inhibition (%)” value worked out at 104.1% and the IC50 amounted to 0.819 µM.
As for `C[C@]12CC[C@H](NC(=O)c3ccnnc3)CC1=CCC1C2CC[C@]2(C)C(c3cncnc3)=CCC12` (stereo partly drawn) [Compound 10], the DC50 on AR turned out to be 4.25 µM. In addition, in the data set on LNCaP cells, the “Maximum Inhibition (%)” value is given as 99.74% and the IC50 was found to be 0.82 µM.
For `C[C@]12CC[C@H](O)CC1=CC[C@@H]1[C@@H]2CC[C@]2(C)C(c3cccnc3)=CC[C@@H]12` [Abiraterone, abiraterone, reference compound], in the data set with LNCaP cells, the “Maximum Inhibition (%)” value is 84.06% and the IC50 turned out to be 2.8 µM. For the same molecule, in data set [1], the Kel was found to be 0.298 h⁻¹ and the MRTPO turned out to be 4.60 h. In data set [1] (rat, plasma), the AUC(0-inf) was 198 ng·h/mL, the AUC(0-t) was found to be 163 ng·h/mL and the half-life is 2.37 h. Besides, the Cmax in data set [1] (rat, plasma, read-out: Cmax) amounted to 48.4 ng/mL. Further, the tmax in data set [1] (rat, plasma, read-out: tmax) amounted to 1.83 h.
At AR, `Cc1cn(C2=CCC3C4CC=C5C[C@@H](NC(=O)c6cccnc6)CC[C@]5(C)C4CC[C@]23C)cn1` (stereo partly drawn) [Compound 12, N-((3S,10R,13S)-10,13-dimethyl-17-(4-methyl-1H-imidazol-1-yl)-2,3,4,7,8,9,10,11,12,13,14,15-dodecahydro-1H-cyclopenta[a]phenanthren-3-yl)nicotinamide] gave a DC50 of 3.58 µM. In the data set with LNCaP cells, the “Maximum Inhibition (%)” value turned out to be 102.9% and the IC50 came out at 0.933 µM.
With `C[C@]12CC[C@H](NC(=O)c3ccnnc3)CC1=CCC1C2CC[C@]2(C)C(n3cnc4ccccc43)=CCC12` (stereo partly drawn) [Compound 9], in the data set with LNCaP cells, the “Maximum Inhibition (%)” value amounted to 95.87% and the IC50 was 0.765 µM.
Molecule `COc1cn(C2=CCC3C4CC=C5C[C@@H](NC(=O)c6ccnnc6)CC[C@]5(C)C4CC[C@]23C)cn1` (stereo partly drawn) [Compound 24] registered a DC50 on AR of 3.88 µM. In addition, in the data set on LNCaP cells, the “Maximum Inhibition (%)” value amounted to 98.02% and the IC50 was 0.475 µM. Further, the “Anti-tumor activity and efficacy compared to enzalutamide” value in the data set with LNCaP cells (in words) was “comparable anti-tumor activity but significantly superior anti-tumor efficacy compared to enzalutamide”.

For orientation: IC50 means the concentration that inhibits the measured activity by half. A word on the DC50: it is the concentration at which degradation of the target reaches its halfway point. Lower therefore signals a more potent degrader. Usually AUC(0-inf) stands for the area under the concentration-time curve extrapolated to infinity. A high value points to high exposure. Broadly, the AUC(0-t) is the area under the concentration-time curve up to a stated or last time point. As usually defined, the half-life is how long it takes for the measured level to halve. By Cmax is commonly meant the maximum level reached in the sampled fluid or tissue.
